# pEC50: −log10 of the molar value.
# Columns and labels:
# [1] = Selectivity index, ratio of CC50 for human MT4 cells to EC50 for HIV1 3B infected in human MT4 cells; type: toxicity, cell-based; conditions: MT4 cells (uninfected for CC50; HIV-1 3B infected for EC50)
# [2] = test system: Human immunodeficiency virus 1; test: Antiviral activity against HIV1 3B infected in human MT4 cells assessed as inhibition of viral replication by MTT assay; type: functional, organism-based; conditions: Human immunodeficiency virus 1, 3B
# [3] = Cytotoxicity against human MT4 cells by MTT assay; type: cell-based
# [4] = test system: Human immunodeficiency virus 1; test: Inhibition of LEDGF/p75-HIV1 integrase interaction at 100 uM by Alphascreen assay
SMILES,selectivity ratio [1],pEC50 [2],CC50 [3] [µM],inhibition [4] [%]
CCCC(C(=O)O)c1cnc2sc(C)cc2c1-c1ccc(C)cc1 (stereo not drawn),95,6.12,72.2,
CCCC(C(=O)O)c1c(-c2ccccc2)c2cc(Cl)ccc2n(CCC)c1=O (stereo not drawn),6,4.97,64.4,
CCCC(C(=O)O)c1c(C)nc2ccc(Cl)cc2c1-c1ccccc1 (stereo not drawn),25,5.63,67.3,
Cc1ccc(-c2c(C(OC(C)(C)C)C(=O)O)cnc3sc(C)cc23)cc1 (stereo not drawn),1390,,96,
O=C(O)Cc1c(-c2ccccc2)c2cc(Cl)ccc2[nH]c1=O,> 3,4.38,> 150,
C=CCC(C(=O)O)c1c(-c2ccccc2)c2cc(Cl)ccc2[nH]c1=O (stereo not drawn),6,4.91,67.3,
Cn1c(=O)c(/C(=N/c2ccccc2)c2nnn[nH]2)c(O)c2ccccc21,,,,36

# Reference: ChEMBL document CHEMBL3132767, “Validation of host factors of HIV integration as novel drug targets for anti-HIV therapy” (Medchemcomm, 2014)
